# Patent US20260034200A1, “TOLEROGENIC PEPTIDES” (University of Birmingham, priority 2022, published 2026)
# Ends that are not written are not given here.
# T1: HLA-DR4 MHC class II (HLA-DRA*0101, HLA-DRB1*0401) (human, UniProt P01903 26-254; P01911 30-266, limits assumed)
# T1 MHC II alpha: not shown
# T1 MHC II beta: not shown
# B1: GAD65 P10 30-mer (peptide)
# peptide: DAAWGGGLLMSRKHKWKLSGVERANSVTWN
# notes: Synthetic 30-residue fragment of human GAD65
# Columns and labels:
# [1] = tested on: GAD65 P10-specific T-cell hybridomas; experiment: T-cell hybridoma screen with Priess cells as APCs, IL-2 ELISA; type: cell-based, mouse; details: for epitope mapping by hybridoma response: 15-mers and truncated peptides, hybridomas SC3 and SC22, 48 h co-culture
# Experimental: HLA-DR4 transgenic mice were injected subcutaneously with Complete Freund's Adjuvant (CFA) and 100 μg of GAD65 P10 30-mer. After 10 days, splenocytes were isolated and re-stimulated with GAD65 P10 30-mer for a further 4-5 days before fusion with hypoxanthine-aminopterin-thymidine (HAT) sensitive BW5147 cells using polyethylene glycol (PEG). Fused hybridomas were expanded in HAT selection media before antigen-specific screening. Co-cultures of 1×10^5 hybridomas and 2×10^5 Priess cells (an Epstein-Barr Virus (EBV) transformed DR4 (DRB1*04:01) expressing human cell line (ECACC 86052111)) as antigen presenting cells (APCs) were incubated for 48 h in a 96-well plate with peptide, whole GAD65 protein, or media only. Antigen-specific responses were determined by IL-2 secretion into culture supernatant by ELISA assay (BioLegend 431004). Hybridomas that proliferated in response to both GAD65 protein and GAD65 30-mer were single cell cloned by limiting dilution.
# Six 15-mers that spanned the parent 30-mer amino acid sequence were generated by 3 amino acid shifts from the N-terminus toward the C-terminus.
# [2] = Solubility in PBS; type: physicochemical
# Experimental: Peptides were synthesized by GL Biochem (Shanghai) Ltd or Genscript (Leiden, The Netherlands). Peptides were >90% purity, resuspended from lyophilised powder in either 100% v/v dimethyl sulfoxide (DMSO) for 30-mers or PBS for soluble peptides. GAD65 protein was synthesised by Biologics Corporation. Purified protein derivative (PPD; Prionics; 7600060) was used at 300 IU/mL. Keyhole limpet haemocyanin (KLH; ThermoFisher Scientific; 77600) was used at 20 μg/mL.
# Iterations designed around the core minimal epitope included retention of non-critical residues and/or addition of multiple lysine residues to both the N- and C-termini (FIG. 3E). […] Although P10.5.C.6K contains only the critical core epitope with additional lysine residues, the re-inclusion of the single non-critical alanine at the C-terminus (P10.5.C+1.6K), increased the potency of the single-clone hybridoma response by 10-fold (FIG. 3F).
# [3] = tested on: MHC class II molecules on fixed or non-fixed HLA-DR4 transgenic mouse splenocytes (hybridoma SC3 readout); experiment: Fixed APC T-cell hybridoma screen; type: cell-based; details: co-culture with formaldehyde fixed and non-fixed HLA-DR4 splenocytes, 48 h
# Experimental: Splenocytes from HLA-DR4 transgenic mice were formaldehyde fixed by the following protocol performed at room temperature; 5 min incubation with 0.5% w/v formaldehyde in PBS at 1×10^6 cells/mL quenched by addition of an equal volume of 0.4 M glycine in PBS solution for a further 5 min, before three washes with cold PBS. T-cell hybridoma screens were set up using 1×10^5 hybridomas and either 2×10^5 formaldehyde fixed APCs or 2×10^5 non-fixed APCs for 48 h co-culture with stimulant or control and responses measured by IL-2 secretion.
# (§1) The next step was to test if GAD65 P10.5.C+1.6K (P10Sol; SEQ ID NO 23) could bind to: (i) MHC class II molecules without antigen processing and, (ii) to steady-state CD11c^+ APCs. These properties are good indicators of whether a peptide can induce tolerance and be characterised as an apitope (Shepard et al., 2021). Formaldehyde fixation of splenocytes inhibits antigen processing and so to test whether GAD65 P10Sol could bind directly to cell-surface MHC class II without antigen processing, GAD65 P10-specific hybridoma SC3 was co-cultured with fixed or non-fixed splenocytes from HLA-DR4 transgenic mice. […] To test whether P10Sol could bind to steady-state CD11c^+ APCs in vivo, HLA-DR4 transgenic mice were injected with 80 μg of P10Sol or PBS, with CD11c^+ splenocytes isolated 1 h later and co-cultured with GAD65 P10 hybridomas SC3 or SC22. […]
# [4] = tested on: steady-state CD11c+ APCs; experiment: Steady state CD11c+ peptide binding assay; type: in vivo, HLA-DR4 transgenic mice; details: antigen added exogenously to the in vitro culture
# Experimental: HLA-DR4 transgenic mice were injected subcutaneously with 80 μg of GAD65 P10.5.C+1.6K (GAD65 P10Sol) peptide, before isolation of CD11c^+ splenocytes 1 h later CD11c^+ positive selection kit (Miltenyi; 130-125-835). T-cell hybridoma responses were measured by secreted IL-2 after a 48 h co-culture of 0.5×10^5 CD11c^+ cells with 1×10^5 GAD65 P10-specific hybridomas with or without exogenous antigen added in vitro.
# as §1
# [5] = target: T1, HLA-DR4 MHC class II (HLA-DRA*0101, …); experiment: cell-based or functional assay
# [6] = target: TCRs of individuals with type 1 diabetes; experiment: cell-based or functional assay
# [7] = target: T1, HLA-DR4 MHC class II (HLA-DRA*0101, …); experiment: IL-2 response of hybridoma SC3 with formaldehyde-fixed or non-fixed HLA-DR4 transgenic splenocytes
# From the text: as §1, with “CD11c⁺” for “CD11c^+”, “mice. Response to whole GAD65 protein required antigen processing from non-fixed splenocytes, whereas both GAD65 P10 30-mer and GAD65 P10Sol (SEQ ID NO 23) induced strong IL-2 responses from hybridoma SC3 when co-cultured with both fixed and non-fixed splenocytes (FIG. 3G).” for “mice.”
molecule,measurement,setting,value
KHKWKLSGVERANSV [P10.5 15-mer],epitope mapping by hybridoma response,[1],responsive 15-mer
"KKKWKLSGVERAKKK [Peptide P10Sol, KKKWKLSGVERAKKK]",solubility in PBS,[2],highly soluble
"KKKWKLSGVERKKK [Peptide P10.5.C.6K, KKKWKLSGVERKKK]",solubility in PBS,[2],highly soluble
WKLSGVER [Peptide P10.5.C],epitope mapping by hybridoma response,[1],minimal core epitope
"glutamate decarboxylase 65 (GAD65) [GAD65 protein, reference compound]",hybridoma IL-2 response,[1]; hybridoma multi-clone 6 with HLA-DRB1*04:01 expressing APCs,could respond
same,IL-2 response from hybridoma SC3,[3],required antigen processing from non-fixed splenocytes
same,IL-2 response of P10-specific hybridomas to CD11c+ cells from PBS injected mice,[4],observed
KKKWKLSGVERAKKK [GAD65 P10.5.C+1.6K (P10Sol)],"potency of the single-clone hybridoma IL-2 response with Priess cells, against P10.5.C.6K (SEQ ID NO 22)",[5],10 fold
same,FAIM+ (CD25+ CD71+ CTVmid CD4 T-cell) response of T1D patient PBMCs; share of P10 30-mer responders that also responded to P10Sol,[6],38%
B1,binding result,[7],binds
